Laboratory results reported in patent US20160199349A1 (priority 2012, published 2016).
“And” between values parts separate entries of the source, which are not always exact repeats. Equal values may be shown once.

Assays:
[1] = tested on: male albino rats (Sprague Dawley); details: rat, in vivo, ip
rat = experiment: animal or person; format: in vivo

## CC(C)Cc1ccc(C(C)C(=O)O)cc1 (stereo not drawn) [ibuprofen]
[1]
  ED25 (95% CI): 117 mg/kg and 117 (90.1-196) mg/kg
rat; Rattus norvegicus, ip, 0.5 h, read-out: ED50 (95% CI)
  ED50: 139 mg/kg
rat; rat, in vivo
  timepoint of peak effect: 30 min p. appl.
